What all share (details): PC-3
For experiment [1], the target named is T1, Eukaryotic elongation factor 2 kinase (Homo sapiens) (UniProt O00418).
T1 sequence (whole entry): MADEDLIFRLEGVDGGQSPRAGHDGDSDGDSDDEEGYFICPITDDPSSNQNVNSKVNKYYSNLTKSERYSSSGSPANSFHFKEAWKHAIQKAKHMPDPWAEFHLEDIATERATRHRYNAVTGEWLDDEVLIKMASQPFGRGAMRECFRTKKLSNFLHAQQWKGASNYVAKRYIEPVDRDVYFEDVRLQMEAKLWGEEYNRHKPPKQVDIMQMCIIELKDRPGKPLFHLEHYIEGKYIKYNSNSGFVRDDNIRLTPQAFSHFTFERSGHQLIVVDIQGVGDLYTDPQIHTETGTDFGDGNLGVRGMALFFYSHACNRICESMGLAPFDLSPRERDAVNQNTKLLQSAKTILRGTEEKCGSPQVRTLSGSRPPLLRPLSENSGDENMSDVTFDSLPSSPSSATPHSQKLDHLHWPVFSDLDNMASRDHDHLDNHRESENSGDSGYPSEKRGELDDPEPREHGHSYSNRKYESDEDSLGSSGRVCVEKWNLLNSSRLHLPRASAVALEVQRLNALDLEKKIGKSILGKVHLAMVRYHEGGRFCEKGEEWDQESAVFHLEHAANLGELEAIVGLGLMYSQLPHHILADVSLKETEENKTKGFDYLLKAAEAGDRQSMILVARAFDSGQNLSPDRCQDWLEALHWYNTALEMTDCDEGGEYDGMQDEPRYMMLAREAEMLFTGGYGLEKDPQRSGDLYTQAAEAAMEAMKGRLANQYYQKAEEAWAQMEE
Briefly: Inhibition of eEF2K in human PC3 cell lysates at 10 uM using desthiobiotin-tagged ATP probe AX9989 followed by trypsinization by LC/MS analysis.

For experiment [2], the target named is T2, Serine/threonine-protein kinase TAO2 (Homo sapiens) (UniProt Q9UL54).
T2 sequence (whole entry): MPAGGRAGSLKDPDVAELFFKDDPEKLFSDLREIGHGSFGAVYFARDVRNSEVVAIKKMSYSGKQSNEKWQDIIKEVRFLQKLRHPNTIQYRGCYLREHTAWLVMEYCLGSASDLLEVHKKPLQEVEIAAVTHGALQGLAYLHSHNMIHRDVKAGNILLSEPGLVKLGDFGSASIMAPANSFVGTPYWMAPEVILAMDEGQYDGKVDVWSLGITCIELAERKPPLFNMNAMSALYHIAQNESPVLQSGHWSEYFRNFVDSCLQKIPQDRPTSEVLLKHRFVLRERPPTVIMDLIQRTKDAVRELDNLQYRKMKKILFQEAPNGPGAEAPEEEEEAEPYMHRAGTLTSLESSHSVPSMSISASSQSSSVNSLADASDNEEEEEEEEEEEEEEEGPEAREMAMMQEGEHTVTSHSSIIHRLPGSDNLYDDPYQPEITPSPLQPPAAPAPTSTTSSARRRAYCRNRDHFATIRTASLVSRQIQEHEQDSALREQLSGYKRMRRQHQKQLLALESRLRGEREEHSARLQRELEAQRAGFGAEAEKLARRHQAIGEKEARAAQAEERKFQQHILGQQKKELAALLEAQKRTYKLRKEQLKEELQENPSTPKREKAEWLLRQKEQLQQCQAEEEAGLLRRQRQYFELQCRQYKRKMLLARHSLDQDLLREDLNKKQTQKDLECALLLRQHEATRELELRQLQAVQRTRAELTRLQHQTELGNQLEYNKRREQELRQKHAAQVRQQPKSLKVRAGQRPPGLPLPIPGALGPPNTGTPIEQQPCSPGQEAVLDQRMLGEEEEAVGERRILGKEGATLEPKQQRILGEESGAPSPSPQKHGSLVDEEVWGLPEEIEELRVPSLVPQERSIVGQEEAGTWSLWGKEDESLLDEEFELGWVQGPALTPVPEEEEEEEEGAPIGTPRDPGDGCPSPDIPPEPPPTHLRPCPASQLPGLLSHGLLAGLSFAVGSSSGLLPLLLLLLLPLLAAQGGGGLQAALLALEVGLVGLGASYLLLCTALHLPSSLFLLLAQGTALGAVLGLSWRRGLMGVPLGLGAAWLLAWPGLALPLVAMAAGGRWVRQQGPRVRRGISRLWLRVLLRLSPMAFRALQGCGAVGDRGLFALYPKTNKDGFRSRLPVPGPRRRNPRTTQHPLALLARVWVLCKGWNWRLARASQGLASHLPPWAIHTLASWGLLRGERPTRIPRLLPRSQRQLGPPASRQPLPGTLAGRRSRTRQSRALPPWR
Briefly: Inhibition of TAO2 in human PC3 cell lysates at 10 uM using desthiobiotin-tagged ATP probe AX9989 followed by trypsinization by LC/MS analysis.

The target in experiment [3] is T3, Serine/threonine-protein kinase tousled-like 1 (Homo sapiens) (UniProt Q9UKI8).
T3 sequence (whole entry): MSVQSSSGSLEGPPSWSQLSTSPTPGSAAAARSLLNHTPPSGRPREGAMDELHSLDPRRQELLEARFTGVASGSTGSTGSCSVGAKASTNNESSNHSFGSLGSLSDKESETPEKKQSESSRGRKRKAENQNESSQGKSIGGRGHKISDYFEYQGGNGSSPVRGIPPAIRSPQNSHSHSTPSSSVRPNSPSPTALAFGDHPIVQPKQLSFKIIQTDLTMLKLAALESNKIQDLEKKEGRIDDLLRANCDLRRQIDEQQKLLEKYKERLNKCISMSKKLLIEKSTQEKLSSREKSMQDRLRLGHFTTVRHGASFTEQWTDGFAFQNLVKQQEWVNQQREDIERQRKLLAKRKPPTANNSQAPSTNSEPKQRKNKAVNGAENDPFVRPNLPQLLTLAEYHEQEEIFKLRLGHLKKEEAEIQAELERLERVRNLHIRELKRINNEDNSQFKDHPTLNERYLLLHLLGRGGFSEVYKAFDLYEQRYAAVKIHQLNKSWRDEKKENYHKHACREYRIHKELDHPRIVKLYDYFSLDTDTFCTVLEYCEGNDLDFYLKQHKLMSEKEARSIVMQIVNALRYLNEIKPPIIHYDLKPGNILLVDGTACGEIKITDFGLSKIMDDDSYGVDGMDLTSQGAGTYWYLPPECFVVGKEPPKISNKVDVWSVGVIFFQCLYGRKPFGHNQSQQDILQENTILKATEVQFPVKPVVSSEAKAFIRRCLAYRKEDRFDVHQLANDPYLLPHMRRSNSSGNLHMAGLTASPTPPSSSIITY
Briefly: Inhibition of TLK1 in human PC3 cell lysates at 10 uM using desthiobiotin-tagged ATP probe AX9989 followed by trypsinization by LC/MS analysis.

For experiment [4], the target named is MAP/microtubule affinity-regulating kinase 3 (Homo sapiens) (UniProt P27448). The experiment can be described thus: Inhibition of MARK3 in human PC3 cell lysates at 10 uM using desthiobiotin-tagged ATP probe AX9989 followed by trypsinization by LC/MS analysis.

The record followed here is ChEMBL document CHEMBL2417377, “Hit-to-lead optimization and kinase selectivity of imidazo[1,2-a]quinoxalin-4-amine derived JNK1 inhibitors” (Bioorg Med Chem Lett, 2013).

One may read the inhibition as the percentage by which the read-out fell short of the control. Low readings indicate a response near the control, high ones a response far below the control.

Sequence of MAP/microtubule affinity-regulating kinase 3 (Homo sapiens) (P27448 whole entry, looked up): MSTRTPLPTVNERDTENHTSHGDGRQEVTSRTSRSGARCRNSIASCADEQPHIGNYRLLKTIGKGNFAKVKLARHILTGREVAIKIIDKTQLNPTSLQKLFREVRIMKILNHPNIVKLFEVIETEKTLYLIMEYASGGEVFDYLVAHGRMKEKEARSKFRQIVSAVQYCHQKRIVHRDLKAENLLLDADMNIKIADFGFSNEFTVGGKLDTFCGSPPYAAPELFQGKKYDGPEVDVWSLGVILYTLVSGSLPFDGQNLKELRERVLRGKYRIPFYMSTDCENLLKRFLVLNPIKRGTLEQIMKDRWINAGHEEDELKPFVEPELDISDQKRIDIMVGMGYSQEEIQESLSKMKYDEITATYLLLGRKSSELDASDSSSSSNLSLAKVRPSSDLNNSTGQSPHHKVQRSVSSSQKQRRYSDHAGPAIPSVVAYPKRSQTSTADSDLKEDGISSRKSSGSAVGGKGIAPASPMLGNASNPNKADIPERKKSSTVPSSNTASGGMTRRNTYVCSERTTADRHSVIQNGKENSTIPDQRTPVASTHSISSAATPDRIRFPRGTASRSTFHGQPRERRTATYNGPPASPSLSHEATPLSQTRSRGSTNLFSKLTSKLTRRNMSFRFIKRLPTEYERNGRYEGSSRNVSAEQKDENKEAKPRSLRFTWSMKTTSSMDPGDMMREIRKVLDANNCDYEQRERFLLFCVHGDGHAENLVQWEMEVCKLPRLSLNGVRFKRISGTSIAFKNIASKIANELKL

For the compound `O=C(NC1(c2ccc(F)cc2)CC1)c1ccc2nc(N[C@H]3CC[C@H](O)CC3)c3nccn3c2c1`, the inhibition in experiment [1], in experiment [2], in experiment [3] and in experiment [4] was < 35% in each case.
Take `C[C@H](NC(=O)c1ccc2nc(N[C@H]3CC[C@H](O)CC3)c3nccn3c2c1)c1ccccc1`: the inhibition in experiment [1], in experiment [2], in experiment [3] and in experiment [4] was < 35% each time.
Regarding `O=C(O)c1ccc2nc(N[C@H]3CC[C@H](O)CC3)c3nccn3c2c1`, the inhibition in experiment [1] was < 35%; in experiment [2], 67%; in experiment [3], < 35%; in experiment [4] it was < 35%.
As to `O=C(NC1(c2ccccc2)CC1)c1ccc2nc(N[C@H]3CC[C@H](O)CC3)c3nccn3c2c1`, the inhibition in experiment [1], in experiment [2], in experiment [3] and in experiment [4] was < 35% in each case.
As for `O=C(N[C@H](CO)c1ccccc1)c1ccc2nc(N[C@H]3CC[C@H](O)CC3)c3nccn3c2c1`, the inhibition in experiment [1], in experiment [2], in experiment [3] and in experiment [4] was < 35% in each case.
On to `C[C@@H](NC(=O)c1ccc2nc(N[C@H]3CC[C@H](O)CC3)c3nccn3c2c1)c1ccccc1`, for which the inhibition in experiment [1], in experiment [2], in experiment [3] and in experiment [4] was < 35% in each case.
For `CC[C@@H](NC(=O)c1ccc2nc(N[C@H]3CC[C@H](O)CC3)c3nccn3c2c1)c1ccccc1`, the inhibition in experiment [1], in experiment [2], in experiment [3] and in experiment [4] was < 35% in each case.
As for `CCC[C@@H](NC(=O)c1ccc2nc(N[C@H]3CC[C@H](O)CC3)c3nccn3c2c1)c1ccccc1`, the inhibition in experiment [1], in experiment [2], in experiment [3] and in experiment [4] was < 35% each time.
With `NC(=O)c1ccc2nc(N[C@H]3CC[C@H](O)CC3)c3nccn3c2c1`, the inhibition in experiment [1], in experiment [2], in experiment [3] and in experiment [4] was < 35% each time.
As to `CC(C)(NC(=O)c1ccc2nc(N[C@H]3CC[C@H](O)CC3)c3nccn3c2c1)c1ccccc1`, the inhibition in experiment [1], in experiment [2], in experiment [3] and in experiment [4] was < 35% throughout.
In the case of `O=C(NC1(c2ccccc2)CCC1)c1ccc2nc(N[C@H]3CC[C@H](O)CC3)c3nccn3c2c1`, the inhibition in experiment [1], in experiment [2], in experiment [3] and in experiment [4] was < 35% in each case.
Turning to `O=C(NC1(Cc2ccc(F)cc2)CC1)c1ccc2nc(N[C@H]3CC[C@H](O)CC3)c3nccn3c2c1`, the inhibition in experiment [1], in experiment [2], in experiment [3] and in experiment [4] was < 35% throughout.
